ChEMBL document CHEMBL5126669, “Discovery of 5,7-Dihydro-6H-pyrrolo[2,3-d]pyrimidin-6-ones as Highly Selective CDK2 Inhibitors” (ACS Med Chem Lett, 2022)

Assays:
[1] = target: Cytochrome P450 2C9 (Homo sapiens, UniProt P11712); test: Inhibition of CYP2C9 (unknown origin) at >25 uM; format: ADME
[2] = AUC in Sprague-Dawley rat at 3 mg/kg, po measured upto 24 hrs by LC-MS/MS analysis; format: ADME, organism-based; design: dose 3 mg/kg, time < 24 hrs, route po; details: in vivo
[3] = target: Cytochrome P450 2D6 (Homo sapiens, UniProt P10635); test: Inhibition of CYP2D6 (unknown origin) at >25 uM; format: ADME
Sequence of Cytochrome P450 2D6 (P10635 whole entry): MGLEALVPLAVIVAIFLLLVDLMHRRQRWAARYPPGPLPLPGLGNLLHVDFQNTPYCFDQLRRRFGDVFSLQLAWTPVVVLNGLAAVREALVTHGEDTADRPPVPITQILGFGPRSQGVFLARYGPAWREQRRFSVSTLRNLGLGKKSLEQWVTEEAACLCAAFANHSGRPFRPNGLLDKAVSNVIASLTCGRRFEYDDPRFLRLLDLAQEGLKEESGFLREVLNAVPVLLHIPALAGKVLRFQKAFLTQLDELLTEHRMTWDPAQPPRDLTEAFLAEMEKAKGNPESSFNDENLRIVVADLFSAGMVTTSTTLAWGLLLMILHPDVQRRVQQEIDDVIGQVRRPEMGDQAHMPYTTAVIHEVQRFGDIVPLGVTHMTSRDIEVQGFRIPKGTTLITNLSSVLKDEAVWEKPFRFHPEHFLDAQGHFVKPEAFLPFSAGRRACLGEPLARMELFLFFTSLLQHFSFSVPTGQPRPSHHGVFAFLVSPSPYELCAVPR

[4] = Hepatic blood flow in Cynomolgus monkey at 0.3 mg/kg, iv measured upto 24 hrs by LC-MS/MS analysis; format: ADME, organism-based, Macaca fascicularis; details: in vivo
[5] = Volume of distribution at steady state in Sprague-Dawley rat at 0.5 mg/kg, iv measured upto 24 hrs by LC-MS/MS analysis; format: ADME, organism-based; details: Sprague-Dawley, in vivo, read-out: Vdss
[6] = Intrinsic clearance in human liver microsomes at 1 uM measured upto 30 mins by LC/MS analysis; format: ADME, Microsome; details: read-out: CLH (converted)
[7] = target: Cytochrome P450 3A4 (Homo sapiens, UniProt P08684); test: Inhibition of CYP3A4 (unknown origin) at >25 uM; format: ADME
Sequence of Cytochrome P450 3A4 (P08684 whole entry): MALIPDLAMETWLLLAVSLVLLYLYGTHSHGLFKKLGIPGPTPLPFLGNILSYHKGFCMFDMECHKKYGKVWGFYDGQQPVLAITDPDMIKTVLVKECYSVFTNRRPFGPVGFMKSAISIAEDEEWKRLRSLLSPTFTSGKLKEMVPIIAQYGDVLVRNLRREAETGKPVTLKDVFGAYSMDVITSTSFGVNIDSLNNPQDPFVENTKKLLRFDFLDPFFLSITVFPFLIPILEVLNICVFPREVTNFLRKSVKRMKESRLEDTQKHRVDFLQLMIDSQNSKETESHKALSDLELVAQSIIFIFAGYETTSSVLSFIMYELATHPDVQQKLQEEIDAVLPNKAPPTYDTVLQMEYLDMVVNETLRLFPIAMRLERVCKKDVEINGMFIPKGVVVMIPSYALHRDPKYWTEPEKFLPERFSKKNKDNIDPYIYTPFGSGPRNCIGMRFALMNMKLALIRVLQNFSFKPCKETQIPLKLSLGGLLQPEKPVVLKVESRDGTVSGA

[8] = Oral bioavailability in Cynomolgus monkey at 2 mg/kg measured upto 24 hrs by LC-MS/MS analysis; format: ADME, organism-based, Macaca fascicularis; details: in vivo
[9] = target: T1, Cytochrome P450 2C8 (Homo sapiens, UniProt P10632); test: Inhibition of CYP2C8 (unknown origin) at >25 uM; format: ADME
T1 sequence (P10632 whole entry): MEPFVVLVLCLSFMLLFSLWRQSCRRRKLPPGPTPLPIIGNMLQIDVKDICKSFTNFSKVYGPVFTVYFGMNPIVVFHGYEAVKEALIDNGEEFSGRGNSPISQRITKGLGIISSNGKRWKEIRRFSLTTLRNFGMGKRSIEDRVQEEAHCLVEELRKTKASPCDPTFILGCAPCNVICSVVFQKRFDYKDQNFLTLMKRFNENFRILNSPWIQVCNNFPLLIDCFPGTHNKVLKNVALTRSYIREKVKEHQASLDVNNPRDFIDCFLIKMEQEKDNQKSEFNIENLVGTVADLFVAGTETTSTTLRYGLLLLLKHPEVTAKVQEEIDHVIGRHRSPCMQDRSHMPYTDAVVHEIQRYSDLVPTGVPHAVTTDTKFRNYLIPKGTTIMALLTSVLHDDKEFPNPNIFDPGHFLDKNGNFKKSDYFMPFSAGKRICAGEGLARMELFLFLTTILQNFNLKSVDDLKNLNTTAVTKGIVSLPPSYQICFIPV

[10] = Cmax in Sprague-Dawley rat at 3 mg/kg, po measured upto 24 hrs by LC-MS/MS analysis; format: ADME, organism-based; design: dose 3 mg/kg, time < 24 hrs, route po; details: in vivo
[11] = target: T2, Cytochrome P450 2B6 (Homo sapiens, UniProt P20813); test: Inhibition of CYP2B6 (unknown origin) at >25 uM; format: ADME
T2 sequence (P20813 whole entry): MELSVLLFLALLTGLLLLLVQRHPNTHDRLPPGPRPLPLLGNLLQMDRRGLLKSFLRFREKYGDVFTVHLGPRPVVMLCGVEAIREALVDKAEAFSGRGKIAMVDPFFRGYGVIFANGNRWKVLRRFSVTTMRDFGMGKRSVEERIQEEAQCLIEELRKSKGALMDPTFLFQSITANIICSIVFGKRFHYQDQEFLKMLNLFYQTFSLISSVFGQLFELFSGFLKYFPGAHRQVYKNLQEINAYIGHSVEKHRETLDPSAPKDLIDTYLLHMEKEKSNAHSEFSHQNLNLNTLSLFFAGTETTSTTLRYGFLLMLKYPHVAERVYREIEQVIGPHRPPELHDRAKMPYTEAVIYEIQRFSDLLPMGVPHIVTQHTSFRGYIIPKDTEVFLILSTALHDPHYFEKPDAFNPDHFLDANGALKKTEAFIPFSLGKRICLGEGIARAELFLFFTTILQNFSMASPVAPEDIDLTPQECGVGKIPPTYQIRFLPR

[12] = target: hERG (KCNH2) (Homo sapiens, UniProt Q12809); test: Displacement of [3H]Dofetilide from human ERG at 10 uM incubated for 24 hrs by filter binding assay relative to control; format: toxicity; details: probe [3H]dofetilide
Sequence of hERG (KCNH2) (Q12809 whole entry): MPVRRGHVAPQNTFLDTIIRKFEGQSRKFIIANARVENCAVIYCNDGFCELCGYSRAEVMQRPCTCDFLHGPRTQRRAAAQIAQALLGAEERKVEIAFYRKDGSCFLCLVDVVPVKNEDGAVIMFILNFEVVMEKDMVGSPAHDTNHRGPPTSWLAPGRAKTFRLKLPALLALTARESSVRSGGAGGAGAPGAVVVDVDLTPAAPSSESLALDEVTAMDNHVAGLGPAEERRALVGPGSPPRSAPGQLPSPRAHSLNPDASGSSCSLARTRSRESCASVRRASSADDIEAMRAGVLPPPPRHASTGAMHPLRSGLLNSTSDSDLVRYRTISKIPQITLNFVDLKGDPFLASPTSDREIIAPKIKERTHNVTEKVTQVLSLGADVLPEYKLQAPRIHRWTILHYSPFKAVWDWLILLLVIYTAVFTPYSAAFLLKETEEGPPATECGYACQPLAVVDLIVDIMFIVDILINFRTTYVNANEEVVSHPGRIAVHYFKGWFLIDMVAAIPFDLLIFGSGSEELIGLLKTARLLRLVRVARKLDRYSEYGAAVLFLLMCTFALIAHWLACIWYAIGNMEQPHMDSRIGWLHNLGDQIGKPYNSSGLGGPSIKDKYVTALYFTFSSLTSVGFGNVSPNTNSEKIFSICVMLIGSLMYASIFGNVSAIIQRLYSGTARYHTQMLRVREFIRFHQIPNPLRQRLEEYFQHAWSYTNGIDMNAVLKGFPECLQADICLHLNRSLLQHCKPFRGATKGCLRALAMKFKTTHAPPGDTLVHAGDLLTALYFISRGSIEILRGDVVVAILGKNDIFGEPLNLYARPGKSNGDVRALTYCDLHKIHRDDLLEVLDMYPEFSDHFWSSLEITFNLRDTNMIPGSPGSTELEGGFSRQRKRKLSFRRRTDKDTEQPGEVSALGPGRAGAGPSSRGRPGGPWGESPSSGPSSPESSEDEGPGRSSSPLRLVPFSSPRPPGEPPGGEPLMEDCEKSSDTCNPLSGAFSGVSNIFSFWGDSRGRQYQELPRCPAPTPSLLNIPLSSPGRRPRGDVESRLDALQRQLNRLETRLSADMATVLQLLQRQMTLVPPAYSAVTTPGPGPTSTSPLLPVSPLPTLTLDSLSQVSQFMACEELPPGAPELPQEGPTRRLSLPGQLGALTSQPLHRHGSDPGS

[13] = target: Cytochrome P450 2C19 (Homo sapiens, UniProt P33261); test: Inhibition of CYP2C19 (unknown origin) at >25 uM; format: ADME
Sequence of Cytochrome P450 2C19 (P33261 whole entry): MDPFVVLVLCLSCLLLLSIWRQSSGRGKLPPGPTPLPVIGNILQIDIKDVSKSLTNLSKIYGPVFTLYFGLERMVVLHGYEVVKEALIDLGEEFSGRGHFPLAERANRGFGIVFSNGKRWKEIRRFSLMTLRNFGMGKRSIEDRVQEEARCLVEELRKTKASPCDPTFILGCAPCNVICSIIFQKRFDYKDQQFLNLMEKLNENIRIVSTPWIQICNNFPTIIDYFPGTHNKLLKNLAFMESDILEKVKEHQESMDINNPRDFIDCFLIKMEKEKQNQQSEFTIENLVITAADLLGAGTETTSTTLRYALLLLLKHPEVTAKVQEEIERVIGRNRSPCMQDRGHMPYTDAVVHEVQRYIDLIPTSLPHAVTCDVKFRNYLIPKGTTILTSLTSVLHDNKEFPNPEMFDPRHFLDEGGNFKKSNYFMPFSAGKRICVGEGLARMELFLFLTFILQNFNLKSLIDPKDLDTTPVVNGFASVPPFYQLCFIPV

[14] = target: T3, Cytochrome P450 1A2 (Homo sapiens, UniProt P05177); test: Inhibition of CYP1A2 (unknown origin) at >25 uM; format: ADME
T3 sequence (P05177 whole entry): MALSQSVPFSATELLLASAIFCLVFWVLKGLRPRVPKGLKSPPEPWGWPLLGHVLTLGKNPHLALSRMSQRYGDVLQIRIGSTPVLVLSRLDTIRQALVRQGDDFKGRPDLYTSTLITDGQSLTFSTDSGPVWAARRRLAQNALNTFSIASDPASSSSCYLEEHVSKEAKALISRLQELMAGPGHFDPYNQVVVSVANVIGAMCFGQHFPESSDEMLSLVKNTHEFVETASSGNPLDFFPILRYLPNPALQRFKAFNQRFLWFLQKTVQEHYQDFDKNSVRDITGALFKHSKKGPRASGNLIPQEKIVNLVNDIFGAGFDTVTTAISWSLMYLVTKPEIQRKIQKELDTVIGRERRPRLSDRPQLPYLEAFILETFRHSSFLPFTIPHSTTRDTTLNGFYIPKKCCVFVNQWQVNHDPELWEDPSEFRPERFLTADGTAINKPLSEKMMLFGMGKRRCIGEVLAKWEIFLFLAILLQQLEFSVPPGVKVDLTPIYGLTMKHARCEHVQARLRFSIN

[15] = AUC in Cynomolgus monkey at 2 mg/kg, po measured upto 24 hrs by LC-MS/MS analysis; format: ADME, organism-based, Macaca fascicularis; design: dose 2 mg/kg, time < 24 hrs, route po; details: in vivo
[16] = Volume of distribution at steady state in Cynomolgus monkey at 0.3 mg/kg, iv measured upto 24 hrs by LC-MS/MS analysis; format: ADME, organism-based, Macaca fascicularis; details: in vivo, read-out: Vdss
[17] = Hepatic blood flow in Sprague-Dawley rat at 0.5 mg/kg, iv measured upto 24 hrs by LC-MS/MS analysis; format: ADME, organism-based; details: in vivo
[18] = target: Cyclin-dependent kinase 2 (Homo sapiens, UniProt P24941); test: Inhibition of CDK2 in human COV318 cells incubated for overnight in presence of human whole blood by HTRF assay; format: cell-based
[19] = Cmax in Cynomolgus monkey at 2 mg/kg, po measured upto 24 hrs by LC-MS/MS analysis; format: ADME, organism-based, Macaca fascicularis; design: dose 2 mg/kg, time < 24 hrs, route po; details: in vivo
[20] = Oral bioavailability in Sprague-Dawley rat at 3 mg/kg measured upto 24 hrs by LC-MS/MS analysis; format: ADME, organism-based; details: in vivo
[21] = organism: Homo sapiens; test: Selectivity ratio of IC50 for inhibition of CDK4/cyclin D1 (unknown origin) to IC50 for inhibition recombinant human N-terminal GST-tagged full-length CDK2/Flag-tagged cyclinE1 expressed in baculovirus expression system
[22] = organism: Homo sapiens; test: Selectivity ratio of IC50 for inhibition of CDK1 (unknown origin) to IC50 for inhibition recombinant human N-terminal GST-tagged full-length CDK2/Flag-tagged cyclinE1 expressed in baculovirus expression system
[23] = Solubility of compound; format: physicochemical
[24] = organism: Homo sapiens; test: Selectivity ratio of IC50 for inhibition of CDK6 (unknown origin) to IC50 for inhibition recombinant human N-terminal GST-tagged full-length CDK2/Flag-tagged cyclinE1 expressed in baculovirus expression system
[25] = organism: Homo sapiens; test: Selectivity ratio of IC50 for inhibition of CDK9 (unknown origin) to IC50 for inhibition recombinant human N-terminal GST-tagged full-length CDK2/Flag-tagged cyclinE1 expressed in baculovirus expression system
[26] = organism: Homo sapiens; test: Selectivity ratio of IC50 for inhibition of CDK7 (unknown origin) to IC50 for inhibition recombinant human N-terminal GST-tagged full-length CDK2/Flag-tagged cyclinE1 expressed in baculovirus expression system
[27] = organism: Homo sapiens; test: Selectivity ratio of IC50 for inhibition of CDK4 (unknown origin) to IC50 for inhibition recombinant human N-terminal GST-tagged full-length CDK2/Flag-tagged cyclinE1 expressed in baculovirus expression system
[28] = organism: Homo sapiens; test: Selectivity ratio of IC50 for inhibition of CDK6/cyclin D1 (unknown origin) to IC50 for inhibition recombinant human N-terminal GST-tagged full-length CDK2/Flag-tagged cyclinE1 expressed in baculovirus expression system
[29] = target: Cyclin-dependent kinase 2/cyclin E1 (Homo sapiens, UniProt P24941); test: Inhibition of recombinant human N-terminal GST-tagged full-length CDK2/Flag-tagged cyclinE1 expressed in baculovirus expression system using eIF4E-binding protein-1 peptide as substrate incubated for 1 hr in presence of ATP by HTRF assay
[30] = organism: Homo sapiens; test: Selectivity ratio of IC50 for inhibition of CDK1/cyclin B (unknown origin) to IC50 for inhibition recombinant human N-terminal GST-tagged full-length CDK2/Flag-tagged cyclinE1 expressed in baculovirus expression system
[31] = Metabolic stability in Sprague-Dawley rat liver microsomes assessed as remaining parent compound at 5 uM measured upto 30 mins by HPLC/MS analysis; format: ADME, Microsome; details: 0.5 h
[32] = Metabolic stability in Sprague-Dawley rat liver microsomes assessed as compound oxidation at 5 uM measured upto 30 mins by HPLC/MS analysis; format: ADME, Microsome; details: 0.5 h
[33] = Metabolic stability in Sprague-Dawley rat liver microsomes assessed as compound demethylation at 5 uM measured upto 30 mins by HPLC/MS analysis; format: ADME, Microsome; details: 0.5 h
[34] = Metabolic stability in human liver microsomes assessed as compound demethylation at 5 uM measured upto 30 mins by HPLC/MS analysis; format: ADME, Microsome; details: 0.5 h
[35] = Metabolic stability in human liver microsomes assessed as compound oxidation at 5 uM measured upto 30 mins by HPLC/MS analysis; format: ADME, Microsome; details: microsomes, 0.5 h, 5 µM
[36] = Metabolic stability in Cynomolgus monkey liver microsomes assessed as compound oxidation at 5 uM measured upto 30 mins by HPLC/MS analysis; format: ADME, Macaca fascicularis, Microsome; details: 0.5 h
[37] = Metabolic stability in Cynomolgus monkey liver microsomes assessed as remaining parent compound at 5 uM measured upto 30 mins by HPLC/MS analysis; format: ADME, Macaca fascicularis, Microsome; details: 0.5 h
[38] = Metabolic stability in human liver microsomes assessed as remaining parent compound at 5 uM measured upto 30 mins by HPLC/MS analysis; format: ADME, Microsome; details: microsomes, 0.5 h, 5 µM
[39] = Metabolic stability in Cynomolgus monkey liver microsomes assessed as compound demethylation at 5 uM measured upto 30 mins by HPLC/MS analysis; format: ADME, Macaca fascicularis, Microsome; details: 0.5 h

Sequence of Cytochrome P450 2C9 (P11712 whole entry): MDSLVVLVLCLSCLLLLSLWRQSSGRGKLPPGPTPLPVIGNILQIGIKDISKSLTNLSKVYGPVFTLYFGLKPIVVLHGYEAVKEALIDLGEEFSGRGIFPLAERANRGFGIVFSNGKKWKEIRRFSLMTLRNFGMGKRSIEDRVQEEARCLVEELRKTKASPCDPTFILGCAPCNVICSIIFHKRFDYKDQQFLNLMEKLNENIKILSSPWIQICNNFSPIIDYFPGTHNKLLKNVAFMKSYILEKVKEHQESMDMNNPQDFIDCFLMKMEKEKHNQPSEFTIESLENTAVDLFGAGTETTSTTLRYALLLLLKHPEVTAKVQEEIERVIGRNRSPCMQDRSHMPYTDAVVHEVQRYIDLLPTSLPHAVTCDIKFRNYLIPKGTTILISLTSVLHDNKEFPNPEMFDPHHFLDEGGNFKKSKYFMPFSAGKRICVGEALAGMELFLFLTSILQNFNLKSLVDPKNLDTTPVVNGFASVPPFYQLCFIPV

[2H]C([2H])([2H])NS(=O)(=O)c1ccc(Nc2ncc3c(n2)N([C@@H]2CCC[C@@H](O)C2)C(=O)C32CC2)cc1
inhibition (INH) [1]: Active
AUC at 24 h [2]: 1.15 µM·h
inhibition (INH) [3]: Active
QH [4]: 70%
Vd [5]: 1.1 L/kg
predicted hepatic clearance at 1 µM [6]: 11.7 mL/min/kg
inhibition (INH) [7]: Active
bioavailability [8]: 100%
inhibition (INH) [9]: Active
Cmax [10]: 992 nM
inhibition (INH) [11]: Active
inhibition at 24 h, 10 µM [12]: 9.7%
inhibition (INH) [13]: Active
inhibition (INH) [14]: Active
AUC at 24 h [15]: 0.739 µM·h
Vd [16]: 3.5 L/kg
QH [17]: > 100%
IC50 [18]: 642 nM
Cmax [19]: 138 nM
bioavailability [20]: 100%

Cn1cc(S(=O)(=O)N2CCC(Nc3ncc4c(n3)N([C@@H]3CCC[C@@H](O)C3)C(=O)C43CC3)CC2)cn1
inhibition (INH) [1]: Active
Ratio IC50 [21]: 110
Ratio IC50 [22]: 660
AUC at 24 h [2]: 1.13 µM·h
solubility [23]: > 400 µg/mL
inhibition (INH) [3]: Active
Ratio IC50 [24]: 35
Ratio IC50 [25]: 2500
QH [4]: 48%
Vd [5]: 2 L/kg
predicted hepatic clearance at 1 µM [6]: 16.7 mL/min/kg
inhibition (INH) [7]: Active
bioavailability [8]: 12%
inhibition (INH) [9]: Active
Cmax [10]: 562 nM
Ratio IC50 [26]: 1100
inhibition (INH) [11]: Active
inhibition at 24 h, 10 µM [12]: 7.2%
Ratio IC50 [27]: 110
Ratio IC50 [28]: 35
inhibition (INH) [13]: Active
inhibition (INH) [14]: Active
AUC at 24 h [15]: 0.388 µM·h
Vd [16]: 1.2 L/kg
QH [17]: 96%
IC50 [18]: 316 nM
IC50 [29]: 2 nM
Cmax [19]: 56 nM
bioavailability [20]: 59%

CNS(=O)(=O)c1ccc(Nc2ncc3c(n2)N([C@@H]2CCC[C@@]2(C)O)C(=O)C32CC2)cc1 (relative stereo)
Ratio IC50 [30]: 520
Stability [31]: 0.1%
Drug metabolism [32]: 74%
Ratio IC50 [21]: 230
Ratio IC50 ([22]; tested as the 2H-labelled form): 490
Drug metabolism [33]: 35%
Drug metabolism [34]: 26%
Ratio IC50 ([24]; tested as the 2H-labelled form): 95
Ratio IC50 ([25]; tested as the 2H-labelled form): 2800
Drug metabolism [35]: 6%
predicted hepatic clearance at 1 µM [6]: 13.3 mL/min/kg
Drug metabolism [36]: 8%
Stability [37]: 0.1%
Stability [38]: 68%
Ratio IC50 ([27]; tested as the 2H-labelled form): 240
Ratio IC50 [28]: 88
Drug metabolism [39]: 98%
IC50 [18]: 350 nM
IC50 [29]: 1.2 nM
